In patent publication US11369590B2, “PSMA binding ligand-linker conjugates and methods for using” (Purdue Research Foundation, priority 2007, dated 2022):
Where two headings read alike, the source gives them in different places. *1 amine or outer side, *2 acyl side, *3 side chain or, on linkers, in order; H or OH if unused. Where a SMILES comes first, the peptide text is derived from it. Side-chain parts run from the residue outwards. [ ]: non-standard residue; d: D form. γGlu = O=C(O)[C@H](CCC(=O)[*:2])N[*:1]; Dap = NC[C@H](N)C(=O)O; Aoc = NCCCCCCCC(=O)O; CO = O=C([*:1])[*:2]

Legend:
LNCaP cells [1] = assay: [3H]-Thymidine incorporation assay, toxicity to LNCaP cells in culture; type: cell-based, human; settings: LNCaP cells pulsed 2 h, additional 66 h in fresh medium
Description: Evaluation of a PSMA-Targeted Therapeutic Agent in Vitro. Analysis of SK71 (FIG. 12A), SK77 (FIG. 12B), SK37 (FIG. 12C), and SK45 (FIG. 12D), toxicity to LNCaP cells in culture. LNCaP cells were pulsed for 2 h with increasing concentrations of SK71 or SK77 in the presence (▴) or absence (▪) of 100-fold molar excess PMPA. After 2× washes, cells were incubated an additional 66 h in fresh medium at 37° C. Cell viability was then analyzed using the [3H]-thymidine incorporation assay, as described herein. Data were obtained in a single experiment and error bars represent s.d. (n=3 wells per concentration).

[2] = Single dose toxicity in live mice; settings: mouse, in vivo, single dosing
Description: Single dose toxicity in live mice. Administration of SK71 was in a single dose as indicated. […] (See FIG. 9A)

[3] = Multiple dose toxicity in live mice; type: in vivo, mouse
Description: Multiple dose toxicity in live mice. SK71 was administered in 5 doses on alternate days (M, W, F, M, W). […] (See FIG. 9B)

LNCaP tumors [4] = assay: Efficacy study compared to control group and competition group; type: in vivo, mouse
Description: Efficacy study compared to control group and competition group. Animals were treated with (a) the conjugate SK71 administered in 5 doses on alternate days (M, W, F, M, W) at […], and compared to (b) vehicle treated animals (FIG. 10B), and to (c) animals treated with the conjugate in conjunction with PMPA. […] The competition experiments (See FIG. 10C) indicate that the successful treatment of the implanted tumor is related to selective or specific targeting of PSMA mediated delivery.

LNCaP cells [5] = settings: 1 hour
Description: Quantification of PSMA Molecules on LNCaP Cells. […] Cells were rinsed three times with 1.0 mL of RPMI. Cells were lysed with tris-buffer, transferred to individual gamma scintigraphy vials, and radioactivity was counted. The plot of cell bound radioactivity verses concentration of radiolabeled compound was used to calculate number of PSMA/LNCaP cell. The radioactivity of a 30 nM sample of SK28-99 mTc (20 uL) was counted. At 4° C. (to prevent endocytosis of PSMA), the number of moles in the 30 nM sample=30 nM×20 uL=(30×10-9 mol/L)×(20×10-6 L)=6×10-13 mol.

LNCaP tumors [6] = assay: In vivo imaging of tumors in mouse using PSMA-99mTc compounds; settings: mice with LNCaP tumors, 4 hours after intraperitoneal injection
Description: In Vivo Imaging of Tumors in Mouse Using PSMA-99 mTc. When tumors reached a volume of between 500-600 mm3, 99 mTc-labeled compounds (e.g. SK28-99 mTc, SK60-99 mTc, etc) prepared as described, were administered through intraperitoneal injection […]. Four hours later, animals were euthanized and blood was taken by cardio punch and transferred to individual gamma scintigraphy vials per each animal. The imaging experiments were carried out using either a Kodak or gamma scintigraphic camera imager (FIGS. 6A, 6B, 6C, 7A, 7B and 7C). [Note: PMPA was injected 30 minutes before injecting SK28 -99 mTc.
FIGS. 6A, 6B, and 6C show images of mice with human LNCaP tumors using SK28-99 mTc (radiolabeled 14 Atom spacer).

LNCaP tumors [7] = assay: In vivo imaging of LNCaP tumors in mouse using DUPA-99mTc
Description: (§1) In Vivo Imaging of Tumors in Mouse Using dupa-99 mTc. To further establish the specificity of our DUPA conjugates for prostate cancer cells, DUPA-99 mTc was injected intraperitoneally (i.p.) into athymic nude mice bearing LNCaP tumors on their shoulders. After 4 h to allow for clearance of unbound conjugate, the distribution of the retained DUPA-99 mTc was imaged by gamma scintigraphy. […] In vivo specificity of the PSMA-targeted imaging agent was further tested by prior administration of excess PMPA to block all PSMA sites before DUPA-99 mTc administration. […] To further document this specificity, the radiotracer was also administered to two PSMA negative mouse xenograft models [A549 (a human lung cancer cell line) and KB (a human nasopharyngeal cancer cell line)], and again whole body images were taken. […] These studies thus confirm that very little DUPA-99 mTc binding occurs to sites unrelated to PSMA in vivo.
(§2) Overlay of whole-body radioimages on white light images of mice bearing LNCaP tumors that were treated with DUPA-99 mTc in the absence 7D(a, c) or presence 7D(b, d) of 100-fold molar excess PMPA. Overlay of radioimages on white light images were also obtained of mice bearing an A549 tumor 7D(e) or a KB tumor 7D(f) that were similarly treated with DUPA-99 mTc. Except in images 7D(a) and 7D(b), kidneys were shielded with lead pads. […]

A549 tumors = settings: mouse, in vivo
Description: as §1, §2

KB tumors = settings: mouse, in vivo
Description: as §1, §2

PSMA = PSMA (Homo sapiens, UniProt Q04609); settings: PSMA ligand of formula drawing 51, R^1 as drawn; cited from earlier work
Chain of PSMA (Q04609 whole entry, species assumed): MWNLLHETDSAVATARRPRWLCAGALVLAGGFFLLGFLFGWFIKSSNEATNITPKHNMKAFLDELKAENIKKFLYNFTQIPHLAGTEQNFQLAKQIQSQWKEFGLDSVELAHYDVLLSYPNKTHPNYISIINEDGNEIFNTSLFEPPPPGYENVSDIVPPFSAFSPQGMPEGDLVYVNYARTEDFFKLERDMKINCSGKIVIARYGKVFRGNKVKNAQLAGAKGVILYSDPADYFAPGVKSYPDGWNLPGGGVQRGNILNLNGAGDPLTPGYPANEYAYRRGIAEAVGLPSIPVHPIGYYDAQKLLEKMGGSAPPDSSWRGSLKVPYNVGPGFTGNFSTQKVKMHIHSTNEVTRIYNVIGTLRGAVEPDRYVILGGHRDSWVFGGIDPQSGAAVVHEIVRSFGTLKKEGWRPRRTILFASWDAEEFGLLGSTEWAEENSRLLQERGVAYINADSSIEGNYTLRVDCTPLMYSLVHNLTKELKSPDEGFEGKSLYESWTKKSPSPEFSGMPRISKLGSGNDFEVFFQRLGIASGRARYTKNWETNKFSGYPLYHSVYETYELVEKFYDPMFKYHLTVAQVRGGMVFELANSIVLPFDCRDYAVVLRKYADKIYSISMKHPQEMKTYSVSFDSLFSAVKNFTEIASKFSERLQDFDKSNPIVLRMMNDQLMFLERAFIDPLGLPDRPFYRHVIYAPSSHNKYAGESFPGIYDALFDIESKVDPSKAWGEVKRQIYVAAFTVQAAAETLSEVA

For `CCCC(=O)OCN(C(=O)[C@@H](NC(=O)[C@H]1CCCCN1C)C(C)CC)[C@H](C[C@@H](OC(C)=O)c1nc(C(=O)N[C@@H](Cc2ccc(O)cc2)C[C@H](C)C(=O)NNC(=O)OCCSSC[C@H](NC(=O)[C@H](Cc2ccccc2)NC(=O)[C@H](CC(=O)O)NC(=O)CC[C@H](NC(=O)CC[C@H](NC(=O)N[C@@H](CCC(=O)O)C(=O)O)C(=O)O)C(=O)O)C(=O)O)cs1)C(C)C` (some centres unmarked) [SK71], the IC50 (LNCaP cells [1]) was ~2 nM, the MTD [2] was ~4.5 µmol/kg and the visible tumors ([3]; LNCaP tumors, 2 and 4 μmol/kg groups, after 18 days of treatment) was “no mice in the two treated groups had visible tumors”. The MTD ([3]; mouse, in vivo, multiple dosing, 5 doses on alternate days, mice) was 2 µmol/kg, the “tumor size during treatment” value (LNCaP tumors [4]; 1 μmol/kg, 5 doses on alternate days, starting tumor size approximately 250 mm3) was “successive decrease in tumor size” and the “tumor volume after dosing” value (LNCaP tumors [4]; 1 μmol/kg, at the cessation of dosing) was “tumor volumes rebounded”. For the same compound, the “tumor response at higher dose” value (LNCaP tumors [4]; at least 2 μmol/kg, during the testing period) was “complete disappearance of the tumor”.

In the case of `N[C@@H](CNC(=O)[C@H](Cc1ccccc1)NC(=O)[C@H](Cc1ccccc1)NC(=O)CCCCCCCNC(=O)CC[C@H](NC(=O)N[C@@H](CCC(=O)O)C(=O)O)C(=O)O)C(=O)N[C@@H](CC(=O)O)C(=O)N[C@@H](CS)C(=O)O` [SK28-^99mTc, metal not drawn] (H-[Dap]([Phe-Phe-Aoc-γGlu-CO-Glu])-Asp-Cys-OH), the “cell bound radioactivity at the saturation point” value (LNCaP cells [5]; 4° C.) is reported as 12 000 cpm, the “cell bound radioactivity at the saturation point” value (LNCaP cells [5]; 37° C.) is reported as 33,000 cpm and the “distribution of radioactivity (imaging)” value (LNCaP tumors [6]) is reported as “distribution was limited to kidneys”. For the same compound, the “tumor uptake after PMPA block” value (LNCaP tumors [7]; LNCaP tumors, prior administration of 100-fold molar excess PMPA) was “no DUPA-99 mTc uptake”, the “distribution of retained radiotracer (gamma scintigraphy)” value (LNCaP tumors [7]; nude mice bearing LNCaP tumors, 4 h after i.p. injection, without PMPA) was “accumulated mainly in the PSMA positive LNCaP tumor” and the radioactivity in tumor (A549 tumors) was “no radioactivity was observed”. The radioactivity in tumor (KB tumors) was “no radioactivity was observed”.

In the case of `O=C(O)CCC(NC(=O)NC(CCC(=O)O)c1nnn[nH]1)C(=O)O` (centres unmarked), the Ki (PSMA) is given as 335 nM.

In the case of `O=C(O)CCC(NC(=O)NC(CCC(=O)O)C(=O)O)C(=O)O` (centres unmarked), the Ki (PSMA) is listed as 8 nM.

`CC[C@@]1(OC(=O)OCCSSC[C@H](NC(=O)[C@H](CC(=O)O)NC(=O)[C@@H](N)CNC(=O)[C@H](Cc2ccccc2)NC(=O)[C@H](Cc2ccccc2)NC(=O)CCCCCCCNC(=O)CC[C@H](NC(=O)N[C@@H](CCC(=O)O)C(=O)O)C(=O)O)C(=O)O)C(=O)OCc2c1cc1n(c2=O)Cc2cc3ccccc3nc2-1` [SK45] gave an IC50 (LNCaP cells [1]) of ~29 nM.
